Results reported in ChEMBL document CHEMBL4043078, “Biological evaluation of pyridone alkaloids on the endocannabinoid system” (Bioorg Med Chem, 2017).
Active and inactive are the calls of the source. No cut-off for these calls is given here.

Tests used:
[1] = molecular target: T1, Lysophosphatidylserine lipase ABHD12 (Mus musculus) (UniProt Q99LR1); experiment: Inhibition of ABHD12 in mouse BV2 cells preincubated for 30 mins and subsequent addition of [3H]-2-OG substrate measured after 15 mins by liquid scintillation counting method; type: cell-based
T1 sequence (whole entry): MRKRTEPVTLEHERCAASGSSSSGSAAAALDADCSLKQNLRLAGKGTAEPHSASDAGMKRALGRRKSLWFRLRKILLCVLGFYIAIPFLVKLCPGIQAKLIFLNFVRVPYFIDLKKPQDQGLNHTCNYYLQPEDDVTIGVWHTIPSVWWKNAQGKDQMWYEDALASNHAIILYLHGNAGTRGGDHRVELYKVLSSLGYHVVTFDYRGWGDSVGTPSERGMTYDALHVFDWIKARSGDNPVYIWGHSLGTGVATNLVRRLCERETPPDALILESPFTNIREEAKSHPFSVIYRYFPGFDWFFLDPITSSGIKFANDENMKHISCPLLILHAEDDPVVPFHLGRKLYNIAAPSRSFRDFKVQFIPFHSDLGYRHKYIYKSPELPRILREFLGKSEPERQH

[2] = molecular target: T2, Fatty-acid amide hydrolase 1 (Homo sapiens, UniProt O00519); experiment: Inhibition of FAAH in human U937 cells assessed as decrease in [ethanolamine-1-3H]AEA uptake preincubated for 2 mins followed by AEA addition after 5 mins by liquid scintillation counting method; type: cell-based
T2 sequence (O00519 whole entry): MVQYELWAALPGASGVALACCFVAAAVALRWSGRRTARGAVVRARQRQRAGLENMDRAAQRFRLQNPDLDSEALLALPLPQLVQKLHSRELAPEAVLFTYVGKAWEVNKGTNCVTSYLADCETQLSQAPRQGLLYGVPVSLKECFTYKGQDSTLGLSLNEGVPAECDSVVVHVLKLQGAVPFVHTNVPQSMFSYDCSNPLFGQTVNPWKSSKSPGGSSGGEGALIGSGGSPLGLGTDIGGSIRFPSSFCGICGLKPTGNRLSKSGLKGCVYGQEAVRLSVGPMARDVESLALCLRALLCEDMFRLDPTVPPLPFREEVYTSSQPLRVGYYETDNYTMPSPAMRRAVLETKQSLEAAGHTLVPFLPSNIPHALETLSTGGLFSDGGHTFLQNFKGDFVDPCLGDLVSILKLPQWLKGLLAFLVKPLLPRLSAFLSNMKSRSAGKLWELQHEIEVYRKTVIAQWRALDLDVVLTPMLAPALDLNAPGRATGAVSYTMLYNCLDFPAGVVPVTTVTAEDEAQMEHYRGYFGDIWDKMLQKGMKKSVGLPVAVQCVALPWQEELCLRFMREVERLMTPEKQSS

[3] = molecular target: T3, Fatty-acid amide hydrolase 1 (Homo sapiens) (UniProt O00519); experiment: Inhibition of FAAH in human U937 cells assessed as decrease in [ethanolamine-1-3H]AEA uptake at 10 uM preincubated for 2 mins followed by AEA addition after 5 mins by liquid scintillation counting method; type: cell-based
T3 sequence (whole entry): T2 sequence (O00519 whole entry)

Cannabinoid receptor 1 [4] = molecular target: T4, Cannabinoid receptor 1 (Homo sapiens, UniProt P21554); experiment: Displacement of [3H]CP55,940 from human CB1 receptor expressed in CHOK1 cell membranes at 1 uM after 2 hrs by liquid scintillation counting method relative to control
[5] = Inhibition of MAGL in pig brain homogenates using [3H]2-OG as substrate after 15 mins by liquid scintillation counting method; type: tissue-based, Sus scrofa
[6] = molecular target: T5, Prostaglandin G/H synthase 2 (Homo sapiens, UniProt P35354); experiment: Inhibition of recombinant human COX2 preincubated for 15 mins followed by arachidonic acid/2-OG substrate addition after 5 mins by ADHP probe-based fluorescence assay
T5 sequence (P35354 whole entry): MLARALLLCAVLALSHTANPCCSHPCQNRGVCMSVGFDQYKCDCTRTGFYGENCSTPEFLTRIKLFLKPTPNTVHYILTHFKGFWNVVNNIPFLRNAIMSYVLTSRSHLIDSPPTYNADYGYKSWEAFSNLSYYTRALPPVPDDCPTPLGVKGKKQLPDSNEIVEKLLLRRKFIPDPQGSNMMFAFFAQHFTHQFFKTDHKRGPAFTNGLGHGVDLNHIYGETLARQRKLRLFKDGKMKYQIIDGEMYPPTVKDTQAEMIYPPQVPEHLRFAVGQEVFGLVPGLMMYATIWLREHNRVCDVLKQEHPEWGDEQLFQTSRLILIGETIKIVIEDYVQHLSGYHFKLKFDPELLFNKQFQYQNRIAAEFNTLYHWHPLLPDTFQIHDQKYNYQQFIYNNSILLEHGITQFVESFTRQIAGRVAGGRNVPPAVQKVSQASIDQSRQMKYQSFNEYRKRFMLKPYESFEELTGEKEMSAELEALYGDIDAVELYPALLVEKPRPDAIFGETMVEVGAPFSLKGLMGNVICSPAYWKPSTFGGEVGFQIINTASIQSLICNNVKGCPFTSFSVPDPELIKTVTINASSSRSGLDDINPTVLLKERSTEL

[7] = molecular target: T2, Fatty-acid amide hydrolase 1; experiment: Inhibition of FAAH in human U937 cells using [ethanolamine-1-3H]AEA as substrate after 15 mins by liquid scintillation counting method; type: cell-based
Cannabinoid receptor 2 [8] = molecular target: T6, Cannabinoid receptor 2 (Homo sapiens, UniProt P34972); experiment: Displacement of [3H]CP55,940 from human CB2 receptor expressed in CHOK1 cell membranes at 1 uM after 2 hrs by liquid scintillation counting method relative to control
[9] = molecular target: T7, Monoacylglycerol lipase ABHD6 (Mus musculus) (UniProt Q8R2Y0); experiment: Inhibition of ABHD6 in mouse BV2 cells preincubated for 30 mins and subsequent addition of [3H]-2-OG substrate measured after 15 mins by liquid scintillation counting method; type: cell-based
T7 sequence (whole entry): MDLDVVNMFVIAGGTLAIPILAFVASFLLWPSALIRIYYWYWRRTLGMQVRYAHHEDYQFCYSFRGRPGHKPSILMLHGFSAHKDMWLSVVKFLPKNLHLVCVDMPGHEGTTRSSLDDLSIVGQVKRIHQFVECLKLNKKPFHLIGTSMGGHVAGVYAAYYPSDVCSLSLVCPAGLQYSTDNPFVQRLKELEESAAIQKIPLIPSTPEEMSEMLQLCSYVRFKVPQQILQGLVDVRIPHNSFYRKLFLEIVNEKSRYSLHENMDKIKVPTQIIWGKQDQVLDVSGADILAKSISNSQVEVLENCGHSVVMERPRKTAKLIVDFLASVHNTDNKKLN

Cannabinoid receptor 2 [10] = molecular target: T6, Cannabinoid receptor 2; experiment: Displacement of [3H]CP55,940 from human CB2 receptor expressed in CHOK1 cell membranes after 2 hrs by liquid scintillation counting method
Sus scrofa = species on record: Sus scrofa; experiment: Inhibition of MAGL in pig brain homogenates using [3H]2-OG as substrate at 10 uM after 15 mins in presence of URB597 by liquid scintillation counting method; type: tissue-based
Cannabinoid receptor 1 [11] = molecular target: T4, Cannabinoid receptor 1; experiment: Displacement of [3H]CP55,940 from human CB1 receptor expressed in CHOK1 cell membranes after 2 hrs by liquid scintillation counting method
[12] = molecular target: T3, Fatty-acid amide hydrolase 1 (Homo sapiens); experiment: Inhibition of FAAH in human U937 cells using [ethanolamine-1-3H]AEA as substrate at 10 uM after 15 mins by liquid scintillation counting method relative to control; type: cell-based

T6 sequence (P34972 whole entry): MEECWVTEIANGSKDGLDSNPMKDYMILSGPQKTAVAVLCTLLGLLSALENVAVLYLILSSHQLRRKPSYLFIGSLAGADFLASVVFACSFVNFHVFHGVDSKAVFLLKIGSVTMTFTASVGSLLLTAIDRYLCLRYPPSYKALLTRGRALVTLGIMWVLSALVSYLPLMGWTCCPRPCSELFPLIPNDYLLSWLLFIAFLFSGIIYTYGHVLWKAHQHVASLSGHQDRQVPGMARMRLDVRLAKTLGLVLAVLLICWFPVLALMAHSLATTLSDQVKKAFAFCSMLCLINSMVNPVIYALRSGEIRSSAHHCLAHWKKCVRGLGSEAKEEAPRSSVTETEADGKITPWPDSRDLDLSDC
T4 sequence (P21554 whole entry): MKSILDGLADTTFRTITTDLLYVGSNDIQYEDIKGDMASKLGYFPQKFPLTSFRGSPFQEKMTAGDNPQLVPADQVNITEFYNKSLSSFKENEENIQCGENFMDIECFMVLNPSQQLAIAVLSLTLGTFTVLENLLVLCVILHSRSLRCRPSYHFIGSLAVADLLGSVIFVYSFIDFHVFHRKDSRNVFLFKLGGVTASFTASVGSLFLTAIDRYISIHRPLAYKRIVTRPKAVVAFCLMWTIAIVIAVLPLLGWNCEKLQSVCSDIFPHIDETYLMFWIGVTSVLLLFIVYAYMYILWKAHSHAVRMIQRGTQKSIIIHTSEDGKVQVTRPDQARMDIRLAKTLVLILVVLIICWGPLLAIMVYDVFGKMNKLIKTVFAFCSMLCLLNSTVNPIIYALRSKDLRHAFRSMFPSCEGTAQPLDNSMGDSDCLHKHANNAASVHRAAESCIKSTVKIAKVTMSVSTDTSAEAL

Structure (SMILES)	inhibition [1]	IC50 [2]	inhibition [3]	inhibition (Cannabinoid receptor 1 [4])	IC50 [5]	IC50 [6]	IC50 [7]	inhibition (Cannabinoid receptor 2 [8])	inhibition [9]	Ki (Cannabinoid receptor 2 [10])	inhibition (Sus scrofa)	Ki (Cannabinoid receptor 1 [11])	inhibition [12]
CCC(C)/C=C(C)/C=C/C=C/C=C/C(=O)c1c(O)c(-c2ccc(O)cc2)c[nH]c1=O (stereo not given) [FARINOSONE A]	inactive	1200 nM	Active	< 20%	> 10000 nM	> 10000 nM	> 10000 nM	< 20%	inactive	> 1000 nM	inactive	> 1000 nM	–
CC[C@@H](C)/C=C(C)/C=C/C(=O)c1c(O)c(-c2ccc(O)cc2)c[nH]c1=O	inactive	–	Active	40%	–	–	–	–	inactive	–	inactive	–	–
CCCCCCCCCCOC(=O)c1c(O)c(-c2ccc(O)cc2)c[nH]c1=O	inactive	600 nM	Active	< 20%	> 10000 nM	> 10000 nM	> 10000 nM	< 20%	inactive	> 1000 nM	inactive	> 1000 nM	40 to 50%
O=C(Oc1ccc([N+](=O)[O-])cc1)N1CCC(C(O)(c2ccc3c(c2)OCO3)c2ccc3c(c2)OCO3)CC1	inactive	–	–	–	–	–	–	–	inactive	–	inactive	–	–
CN(Cc1cccc(-c2ccncc2)c1)C(=O)Oc1ccc(-c2ccc(C(N)=O)cc2)cc1	Active	–	–	–	–	–	–	–	Active	–	–	–	–
CCC(/C=C(C)/C=C/C(=O)c1c(O)c(-c2ccc(O)cc2)c[nH]c1=O)CO (stereo not given)	inactive	–	inactive	< 20%	–	–	–	< 20%	inactive	–	inactive	–	–
CCC(C)/C=C(C)/C=C/C=C/C(=O)c1c(O)c(-c2ccc(O)cc2)c[nH]c1=O (stereo not given)	inactive	–	inactive	< 20%	–	–	–	< 20%	inactive	–	inactive	–	–
CCCCCCCCCCCCCCCCCC(=O)c1c(O)c(-c2ccc(O)cc2)c[nH]c1=O	inactive	> 10000 nM	inactive	< 20%	> 10000 nM	> 10000 nM	> 10000 nM	< 20%	inactive	> 1000 nM	inactive	> 1000 nM	–
CCCCCCCC(=O)c1c(O)c(-c2ccc(O)cc2)c[nH]c1=O	inactive	700 nM	Active	< 20%	> 10000 nM	> 10000 nM	> 10000 nM	< 20%	inactive	> 1000 nM	inactive	> 1000 nM	80%
CCCCCCCCCCCC(=O)c1c(O)c(-c2ccc(O)cc2)c[nH]c1=O	inactive	800 nM	Active	50%	> 10000 nM	> 10000 nM	4600 nM	inactive	inactive	> 1000 nM	inactive	1000 nM	40 to 50%
CCC(C)/C=C(C)/C=C/C=C/C(=O)c1c(OC)c(-c2ccc(O)cc2)c[nH]c1=O (stereo not given)	inactive	–	Active	< 20%	–	–	–	< 20%	inactive	–	inactive	–	–
NC(=O)c1cccc(-c2cccc(OC(=O)NC3CCCCC3)c2)c1	inactive	–	–	–	–	–	–	–	inactive	–	inactive	–	–
CCC(C)CC(C)/C=C(C)/C=C/C(=O)c1c(O)c(-c2ccc(O)cc2)c[nH]c1=O (stereo not given)	inactive	–	inactive	40%	–	–	–	–	inactive	–	inactive	–	–
CCC(C)CC(C)/C=C(C)/C=C/C=C/C(=O)c1c(O)c(-c2ccc(O)cc2)c[nH]c1=O (stereo not given)	inactive	–	Active	< 20%	–	–	–	< 20%	inactive	–	inactive	–	40 to 50%
CCCCCCCCCCC[C@@H](C[C@@H]1OC(=O)[C@H]1CCCCCC)OC(=O)[C@H](CC(C)C)NC=O	Active	–	–	–	–	–	–	–	Active	–	–	–	–
C=CCCCOC(=O)c1c(O)c(-c2ccc(O)cc2)c[nH]c1=O	inactive	–	inactive	< 20%	–	–	–	< 20%	inactive	–	inactive	–	–
CCC(/C=C/C=C/C=C/C(=O)c1c(O)c(-c2ccc(O)cc2)c[nH]c1=O)CO (stereo not given)	inactive	–	inactive	< 20%	–	–	–	< 20%	inactive	–	inactive	–	–
